Measured values taken from patent US20060025390A1, “Treatment of hormone allergy and related symptoms and disorders” (priority 2004, published 2006).

System: patients experiencing hormone allergy symptoms
Experiment: Clinical responses of hormone allergy symptoms to intradermal dilute progesterone (or estrogen)
Assay type: in vivo, human
Conditions: for % of Patients who Respond: any relief of symptom; for % Improvement in Responding Patients: average of patients' estimates
Excerpt: Patients experiencing several hormone allergy symptoms experienced relief when administered dilute doses of progesterone either sublingually or intradermally.
The symptoms measured were irritation or pain in the neck, nose, eyes, throat, ear, skin, back, hips, upper extremities and lower extremities, headache, and shortness of breath. […]
Patients were designated as responding patients in Table 1 if they experienced any relief of the indicated symptom. Patients were also asked to estimate the amount of improvement in the symptom, an average of which is
In Table 2 the probability that positive results (i.e. patients responding to treatment) were due to random effects was calculated using standard statistical analysis of patient tests. It was assumed that if the treatment has no effect, there is a 50% chance that a patient will indicate a positive response and a 50% chance that a patient will indicate a negative response. From this assumption, coupled with the actual data, one may calculate the probability that positive responses are due to an actual effect of the treatment and not simply random effects. In general, results with a less than 1% chance of being random are considered highly significant. Results with a less than 5% chance of being random are normally conclusively labeled as nonrandom. Thus, the results observed for most of the symptoms in Table 2 are highly significant, with only the results for ear irritation and pain falling merely in the nonrandom category.
Hormone samples may be prepared in any way suitable for the intended administration route. For administration through intradermal injection, samples may be prepared as they were in the studies of Examples 2 and 3. Specifically, the progesterone was formulated from commercially available injectable progesterone. Each ml of the final formulation contained […] of progesterone and 10% benzyl alcohol as a preservative in sesame oil. 0.1 ml was administered per patient intradermally. Estrogen samples were similarly prepared.

[1] = Back, of 58 patients with symptom (Table 2)
[2] = Ear, of 35 patients with symptom (Table 2)
[3] = Eyes, of 94 patients with symptom (Table 2)
[4] = Headache, of 105 patients with symptom (Table 2)
[5] = Hips, of 26 patients with symptom (Table 2)
[6] = Lower Extremity, 0.5 mg intradermally
[7] = Lower Extremity, of 51 patients with symptom (Table 2)
[8] = Neck, of 146 patients with symptom (Table 2)
[9] = Nose, of 112 patients with symptom (Table 2)
[10] = Shortness of Breath, 0.5 mg intradermally
[11] = Shortness of Breath, of 144 patients with symptom (Table 2)
[12] = Skin, of 35 patients with symptom (Table 2)
[13] = Throat, of 94 patients with symptom (Table 2)
[14] = Upper Extremity, 0.5 mg intradermally
[15] = Upper Extremity, of 63 patients with symptom (Table 2)

CC(=O)[C@H]1CC[C@H]2[C@@H]3CCC4=CC(=O)CC[C@]4(C)[C@H]3CC[C@]12C [Progesterone, progesterone]
% of Patients who Respond (Back, 0.5 mg intradermally): 82% | % Improvement in Responding Patients (Back, 0.5 mg intradermally): 72% | # of Responding Patients (Back, 0.5 mg intradermally, of 57 patients (Table 1)): 47 | # of Responding Patients [1]: 48 | # of non-Responding Patients [1]: 10 | % of Patients who Respond (Ear, 0.5 mg intradermally): 66% | % Improvement in Responding Patients (Ear, 0.5 mg intradermally): 25% | # of Responding Patients (Ear, 0.5 mg intradermally, of 35 patients (Table 1)): 23 | # of Responding Patients [2]: 23 | # of non-Responding Patients [2]: 12 | % of Patients who Respond (Eyes, 0.5 mg intradermally): 81% | % Improvement in Responding Patients (Eyes, 0.5 mg intradermally): 57% | # of Responding Patients (Eyes, 0.5 mg intradermally, of 90 patients (Table 1)): 73 | # of Responding Patients [3]: 75 | # of non-Responding Patients [3]: 19 | % of Patients who Respond (Headache, 0.5 mg intradermally): 82% | % Improvement in Responding Patients (Headache, 0.5 mg intradermally): 69% | # of Responding Patients (Headache, 0.5 mg intradermally, of 103 patients (Table 1)): 84 | # of Responding Patients [4]: 85 | # of non-Responding Patients [4]: 20 | % of Patients who Respond (Hips, 0.5 mg intradermally): 92% | % Improvement in Responding Patients (Hips, 0.5 mg intradermally): 79% | # of Responding Patients (Hips, 0.5 mg intradermally, of 26 patients (Table 1)): 24 | # of Responding Patients [5]: 24 | # of non-Responding Patients [5]: 2 | % of Patients who Respond [6]: 79% | % Improvement in Responding Patients [6]: 76% | # of Responding Patients (Lower Extremity, 0.5 mg intradermally, of 61 patients (Table 1)): 48 | # of Responding Patients [7]: 43 | # of non-Responding Patients [7]: 8 | % of Patients who Respond (Neck, 0.5 mg intradermally): 72% | % Improvement in Responding Patients (Neck, 0.5 mg intradermally): 62% | # of Responding Patients (Neck, 0.5 mg intradermally, of 144 patients (Table 1)): 104 | # of Responding Patients [8]: 106 | # of non-Responding Patients [8]: 40 | % of Patients who Respond (Nose, 0.5 mg intradermally): 82% | % Improvement in Responding Patients (Nose, 0.5 mg intradermally): 63% | # of Responding Patients (Nose, 0.5 mg intradermally, of 109 patients (Table 1)): 89 | # of Responding Patients [9]: 92 | # of non-Responding Patients [9]: 20 | % of Patients who Respond [10]: 87% | % Improvement in Responding Patients [10]: 67% | # of Responding Patients (Shortness of Breath, 0.5 mg intradermally, of 142 patients (Table 1)): 124 | # of Responding Patients [11]: 126 | # of non-Responding Patients [11]: 18 | % of Patients who Respond (Skin, 0.5 mg intradermally): 79% | % Improvement in Responding Patients (Skin, 0.5 mg intradermally): 74% | # of Responding Patients (Skin, 0.5 mg intradermally, of 34 patients (Table 1)): 27 | # of Responding Patients [12]: 27 | # of non-Responding Patients [12]: 8 | % of Patients who Respond (Throat, 0.5 mg intradermally): 76% | % Improvement in Responding Patients (Throat, 0.5 mg intradermally): 64% | # of Responding Patients (Throat, 0.5 mg intradermally, of 92 patients (Table 1)): 70 | # of Responding Patients [13]: 71 | # of non-Responding Patients [13]: 23 | % of Patients who Respond [14]: 80% | % Improvement in Responding Patients [14]: 75% | # of Responding Patients (Upper Extremity, 0.5 mg intradermally, of 50 patients (Table 1)): 40 | # of Responding Patients [15]: 50 | # of non-Responding Patients [15]: 13 | effectiveness in relieving hormone allergy symptoms compared to several other antigens (dilute doses sublingually or intradermally): most effective
